Measurements from US5877210A, “Phosphotyrosine phosphatase inhibitors or phosphotyrosine kinase activators for controlling cellular proliferation” (priority 1995, dated 1999).
Where “and” joins values, the source holds several entries; their conditions need not be identical. Identical values can stand only once. Entries after “also recorded” stand apart in the source; their conditions may differ.

What was measured:
THP-1 = assay: Clonogenic assay in methylcellulose; format: cell-based, human; conditions: for colonies formed: seven days
Procedure: (§1) The selective cytotoxicity of BMLOV was examined in clonogenic assays. Cells were grown in methylcellulose media and the number of colonies formed after seven days of treatment with various doses of the drug were determined. The clonogenic assays were performed with six replicates for each treatment as described [F. M. Uckun et al., J. Exp. Med. 163:347-368 (1986); F. M. Uckun & J. A. Ledbetter, Proc. Natl. Acad. Sci. USA 85:8603-8607 (1988)). The data is given plus/minus the standard error of the mean.
For assays of cellular proliferation, cells were grown five days in the presence of the indicated concentrations of BMLOV, pulsed 6 hr with [^3 H]-thymidine (New England Nuclear, Boston, Mass.), and counted in a liquid scintillation counter. Human peripheral blood lymphocytes (PBL) from normal volunteers were isolated from lymphocyte separation medium (Litton Bionetics, Kensington, Md.) by density gradient centrifugation. Monocytes were depleted from PBL by two rounds of plastic absorption for 30 minutes at 37° C. B cells were enriched for by negative selection using complement plus monoclonal antibodies to CD2, CD3, CD4, and CD8 for complement depletion. Clonogenic assays of colony formation in methylcellulose medium were performed as previously described (F. M. Uckun et al. (1992), supra).

T cell line CEM = assay: Clonogenic assay in methylcellulose; format: cell-based, human; conditions: dose as high as 100 μM BMLOV
Procedure: as §1

Ramos B cells [1] = assay: Ca2+ signaling in Ramos B cells; format: cell-based, human
Procedure: Ca^2+ responses were measured using indo-1 (Molecular Probes, Eugene, Oreg.) and a model 50 HH/2150 flow cytometer (Ortho, Westwood, Mass.) as previously described (P. S. Rabinovitch et al., J. Immunol. 137:952-961 (1986)). The histograms were analyzed by programs (Cicero, Cytomation Inc., Ft. Collins, Colo.) that calculate the mean indo-1 violet/blue fluorescence ratio versus time. There are 100 data points on the X (time) axis for all flow cytometric data.
In the experiments shown in FIG. 22, Ramos B cells were treated overnight with the indicated concentrations of BMLOV. The baseline level of intracellular free Ca^2+ ([Ca^2+ ]i) was established for 1 min, and then the cells were treated with anti-human IgM F(ab')2 (α-μ). The gap in the trace reflects the addition of α-μ. An acute Ca^2+ response to the addition of BMLOV to the Ramos cells was not observed, in contrast to the rapid elevation of Ca^2+ observed following treatment with pervanadate or H2 O2 (G. L. Schieven et al., Blood 82:1212-1220 (1993)); G. L. Schieven et al., J. Biol. Chem. 268:16688-16692 (1993)).

Ramos B cells [2] = assay: Cell cycle analysis by propidium iodide flow cytometry; format: cell-based, human
Procedure: Ramos B cells treated with various concentrations of BMLOV for 16 hours were examined for their DNA content by propidium iodide staining followed by FACScan flow cytometric analysis using the SFIT program.
Cells were fixed, permeabilized and stained for their DNA content with propidium iodide as previously described (D. H. Pluznik et al., "Colony Stimulating Factor (CSF) Controls Proliferation of CSF-Dependent Cells by Acting During the G1 Phase of the Cell Cycle," Proc. Natl. Acad. Sci. USA 81:7451-7455 (1984)). The stained cells were analyzed by flow cytometry on a FACScan (Becton-Dickinson) instrument. The percentage of cells in various stages of the cell cycle was calculated using the CellFIT program.
In FIG. 14, Ramos cells growing in log phase were treated with BMLOV for 48 hr at the indicated concentrations. DNA in the cells was stained with propidium iodide and quantitated by flow cytometry as described previously. The calculated percentage of cells at the stages of the cell cycle is shown. "A" marks apoptotic cells lacking normal amounts of DNA in the 5 μM dose panel.

Ramos B cells [3] = assay: Viability by propidium iodide staining and flow cytometry; format: cell-based, human; conditions: 25 μM BMLOV, 4 days (FIG. 15B) or 5 d (FIG. 30)
From the text: The extent to which the T cells were being killed by BMLOV treatment relative to the Ramos B cells was therefore examined. […] The percentage of cells in each quadrant is indicated. The lower right quadrant contains the viable cells.

PLCγ2 = PLCγ2 tyrosine phosphorylation in Ramos B cells; format: cell-based, human; conditions: 16 h, dose-dependent, no antigen receptor stimulation
Procedure: Syk is essential for the tyrosine phosphorylation of PLCγ2 that leads to Ca^2+ signaling in B cells following antigen receptor stimulation (M. Takata et al., EMBO J. 13:1341-1349 (1994)). […] In the experiments shown in FIG. 24, Ramos B cells were treated 16 h with the indicated concentrations of BMLOV and then stimulated for 2 min with α-μ. Antibody binding in immunoblots was detected by ECL. […] The extent of tyrosine phosphorylation of PLCγ2 induced by BMLOV was substantially more than that observed following a maximal sIgM stimulation, and no additional tyrosine phosphorylation of PLCγ2 could be induced by sIgM stimulation of BMLOV treated cells.

i.p. B16 murine melanoma = format: in vivo
Procedure: The cumulative dose MTD of 54 mg/kg was similar to the 60 mg/kg cumulative MTD observed in the last M109 experiment.

[4] = test system: i.p. M109 murine lung carcinoma; assay: In vivo antitumor test, M109; conditions: for Max. % T/C: qd 1→5, ip
Procedure: The compound pV(phen) was tested for its antitumor activity in vivo. A summary of the antitumor test results is shown below in Table 13. In the i.p. M109 murine lung carcinoma model (Experiment No. 330; Table 13), consecutive daily i.p. injections each day from day 1 to 5 were effective in achieving an active result. […] A maximum T/C of 143%, consistent with the first result, was obtained.

[5] = test system: i.p. implanted P388 murine leukemia; assay: In vivo antitumor test, P388

SMILES: Cc1occc(=O)c1[O-].Cc1occc(=O)c1[O-].[O]=[V+2] [BMLOV, Bis(maltolato)oxovanadium (IV)]
- percentage of inhibition of clonogenic growth (THP-1; 1 μM BMLOV): 75.0%
- colonies formed (THP-1; 1 μM BMLOV): 1613 ± 235 colonies per 10^4 cells
- percentage of inhibition of clonogenic growth (THP-1; 5 μM BMLOV): 98.0%
- colonies formed (THP-1; 5 μM BMLOV): 127 ± 35 colonies per 10^4 cells
- percentage of inhibition of clonogenic growth (THP-1; 10 μM BMLOV): 98%
- colonies formed (THP-1; 10 μM BMLOV): 127 ± 35 colonies per 10^4 cells
- inhibition of clonogenic growth (T cell line CEM): inhibited only moderately
- Ca2+ signals induced by cross-linking sIgM (Ramos B cells [1]; 25 μM BMLOV, overnight): Complete inhibition
- UV-induced Ca2+ signals (Ramos B cells [1]; Ramos B cells): greatly increased and prolonged UV-induced Ca^2+ signals
- basal Ca2+ levels (Ramos B cells [1]; Ramos B cells, BMLOV 16 h): elevation of basal Ca^2+ levels
- proportion of cells in G2/M (Ramos B cells [2]; 0 to 5 μM BMLOV): did not change substantially
- proportion of cells in G1 (Ramos B cells [2]; 5 μM BMLOV, control 34%): 14%
- proportion of cells in S phase (Ramos B cells [2]; 5 μM BMLOV, control 56%): 77%
- effect on cell cycle distribution, in words (Ramos B cells [2]; 16 hours, 0 to 5 μM BMLOV): preferentially deplete the proportion of cells in G1 while increasing the proportion in S phase
- killing by BMLOV, in words (Ramos B cells [3]): substantially more sensitive to killing; also recorded: completely killed
- tyrosine phosphorylation of PLCγ2 (PLCγ2): strongly induced the tyrosine phosphorylation of PLCγ2

SMILES: [Na+].[O]=[V-]12([O][O]1)[O][O]2.c1cnc2c(c1)ccc1cccnc12 [pV(phen), sodium (1,10-phenanthroline) oxodiperoxovanadium (V)]
- Max. % T/C (i.p. B16 murine melanoma; Expt. 799, 6 mg/kg/inj (MTD reached), qd 1→9, ip): 152%
- maximum tolerated dose (MTD) (i.p. B16 murine melanoma; mouse, in vivo, ip): 6 mg/kg per injection
- Max. % T/C ([4]; Expt. 330, 12 mg/kg/inj): 144%
- Max. % T/C ([4]; Expt. 333, 12 mg/kg/inj (MTD reached)): 143%
- cumulative MTD ([4]; last M109 experiment): 60 mg/kg
- Max. % T/C ([5]; Expt. 8457, 8 mg/kg/inj (MTD reached), d.1, ip, 8 mg/kg): < 125% and 105%
- dose considered to be a MTD ([5]; daily i.p. injections days 1 to 5, Expt. 8459): 12 mg/kg per injection
- excessively toxic, i.e. lethal, dose ([5]; single i.p. doses, Expt. 8457): greater than or equal to 32 mg/kg
